# ChEMBL document CHEMBL1201862, “PubChem BioAssay data set” (2004)
# Active and inactive are the calls of the source. Cut-off read from the data, not from the text of the source, for most assays here: actives have a measured EC50 and inactives only a lower limit.
# How the values were obtained:
# INS1 = assay: beta cell apoptosis inhibitors, cytokine rescue, dose response, luminescence, retest (AID 449756); assay type: functional, cell-based; details: Rattus norvegicus;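 note: cell death triggered by IL-1 beta plus TNF-alpha plus IFN-gamma mixture; protective hits raise ATP signal compared with cytokine alone wells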
# [1] = inhibitors of firefly luciferase expression or activity, dose response, H4 neuroglioma cells, luminescence (AID 1990); assay type: functional, cell-based
# [2] = Luminescence Cell-Based Dose Response HTS to Identify Inhibitors of 5'UTR Stem-Loop Driven Prion Protein mRNA Translation in H4 Neuroglioblastoma Cells. [Related pubchem assays: 1827 (Project Summary), 1813 (Primary HTS)]; assay type: functional
# [3] = inhibitors of SNCA 5'UTR-driven reporter translation, confirmation, H4 neuroglioma cells, luminescence (AID 1988); assay type: functional, cell-based
# [4] = target: T1, Corticotropin-releasing factor receptor 2/Corticotropin-releasing factor-binding protein (Homo sapiens, UniProt P24387+Q13324); assay: activators of CRF receptor 2 with binding protein – uHTS hits, confirmation (AID 602473); assay type: functional; details: read-out: EC50_Mean
# T1 sequence (Q13324 whole entry): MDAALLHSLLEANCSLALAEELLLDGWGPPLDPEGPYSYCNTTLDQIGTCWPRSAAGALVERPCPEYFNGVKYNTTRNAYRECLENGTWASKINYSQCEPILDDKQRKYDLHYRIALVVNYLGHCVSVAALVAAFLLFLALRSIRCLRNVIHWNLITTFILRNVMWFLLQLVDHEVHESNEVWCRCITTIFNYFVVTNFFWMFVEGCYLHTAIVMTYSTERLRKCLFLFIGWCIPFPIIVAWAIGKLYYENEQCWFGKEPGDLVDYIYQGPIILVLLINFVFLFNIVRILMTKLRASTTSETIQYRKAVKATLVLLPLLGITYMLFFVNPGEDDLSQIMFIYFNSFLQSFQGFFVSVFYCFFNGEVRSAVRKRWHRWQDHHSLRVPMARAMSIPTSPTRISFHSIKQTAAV
# T1 sequence (P24387 whole entry): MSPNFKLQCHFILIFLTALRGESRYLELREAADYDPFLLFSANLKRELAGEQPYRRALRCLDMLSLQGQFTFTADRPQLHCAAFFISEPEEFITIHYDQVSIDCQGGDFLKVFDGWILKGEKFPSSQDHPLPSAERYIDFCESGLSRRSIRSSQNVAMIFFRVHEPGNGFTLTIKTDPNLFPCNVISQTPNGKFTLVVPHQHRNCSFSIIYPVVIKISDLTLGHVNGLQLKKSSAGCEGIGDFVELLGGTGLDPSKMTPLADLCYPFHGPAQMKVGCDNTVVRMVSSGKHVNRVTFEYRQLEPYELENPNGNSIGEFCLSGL
# [5] = target: T1, Corticotropin-releasing factor receptor 2/Corticotropin-releasing factor-binding protein; assay: Dose Response confirmation of uHTS hits for small molecule antagonists of the CRF-binding protein and CRF-R2 receptor complex.; assay type: functional; details: read-out: IC50_Mean
# H9c2 = assay: cells; assay type: functional, cell-based; details: Rattus norvegicus, H9c2, Myocardium;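 note: confirmatory concentration-response retest of ultra-high-throughput screening hits for modulation of myocardial damage; cell death induced by hydrogen peroxide oxidative stress; compound pretreatment for 60 min then peroxide exposure for 2 h; potency is for protecting the cells against peroxide damage rather than for killing them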
# [6] = Luminescence Cell-Based Dose Confirmation HTS to Identify Activators of 5'UTR Stem-Loop Driven Alpha-Synuclein mRNA Translation in H4 Neuroglioblastoma Cells. [Related pubchem assays: 1829 (Project Summary), 1814 (Primary HTS)]; assay type: functional
# [7] = Luminescence Cell-Based Dose Response HTS to Identify Activators of Luciferase Translation or Activity in H4 […] Cells. [Related pubchem assays: 1829 (Project Summary), 1814 (Primary HTS)]; assay type: functional
# H4 = assay: Luminescence Cell-Based Dose Response HTS to Identify Activators of 5'UTR Stem-Loop Driven Prion Protein mRNA Translation in H4 Neuroglioblastoma Cells. [Related pubchem assays: 1829 (Project Summary), 1814 (Primary HTS)]; assay type: functional; details: Homo sapiens
# [8] = HEp-2 cell cytotoxicity, dose response, cytotoxicity control for RSV inhibitor project, HTS (AID 2410); assay type: functional; details: human respiratory syncytial virus
# Streptokinase A = target: T2, Streptokinase A (Streptococcus pyogenes serotype M1, UniProt P10520); assay: S. pyogenes streptokinase expression inhibitors, potency, dose response, plasminogen activation absorbance, OD405 (AID 1914); assay type: functional, Streptococcus pyogenes M1 GAS;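 note: secreted streptokinase activity via plasminogen activation per viability signal from cell pellet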
# T2 sequence (P10520 whole entry): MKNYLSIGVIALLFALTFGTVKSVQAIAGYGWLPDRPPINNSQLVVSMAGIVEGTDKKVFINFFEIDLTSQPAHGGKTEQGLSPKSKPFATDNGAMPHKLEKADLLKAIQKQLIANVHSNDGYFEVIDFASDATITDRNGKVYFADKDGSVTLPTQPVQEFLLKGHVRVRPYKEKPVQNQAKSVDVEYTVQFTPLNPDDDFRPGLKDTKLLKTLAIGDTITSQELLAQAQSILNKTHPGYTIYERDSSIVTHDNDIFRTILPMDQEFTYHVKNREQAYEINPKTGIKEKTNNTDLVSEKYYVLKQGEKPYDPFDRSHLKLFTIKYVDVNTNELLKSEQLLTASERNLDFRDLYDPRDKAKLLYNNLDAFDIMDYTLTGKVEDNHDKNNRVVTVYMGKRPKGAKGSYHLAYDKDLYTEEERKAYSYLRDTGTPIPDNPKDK
# [9] = test system: Streptococcus sp. 'group A'; assay: growth inhibition of control SK(-) GAS strain, dose response, counter-screen for streptokinase expression inhibitor project, luminescence, kanamycin, BacTiterGlo, confirmation (AID 1900); assay type: functional, organism-based
# Streptococcus = assay: Group A Streptococcus viability loss, dose response, counter-screen for streptokinase expression inhibitor project, luminescence, BacTiterGlo (AID 1915); assay type: functional, organism-based;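 note: potency for reduction of bacterial viability or growth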
smiles,measurement,setting,value
FC(F)(F)c1nc2ccccc2n2c(-c3ccc(Cl)cc3)nnc12,AC50,INS1,6.4 µM (active)
same,EC50,[1],9.07 µM (active)
same,EC50,[2],9.21 µM (active)
same,EC50,[3],8.92 µM (active)
COC(=O)c1ccc(OCC(O)CN2C(=O)c3ccccc3S2(=O)=O)cc1 (configuration not stated),EC50,[4],> 53 µM (inactive)
same,IC50,[5],> 47.1 µM (inactive)
COc1ccc(-c2nn(-c3ccccc3)cc2C(=O)OCC(=O)c2ccc(C)c([N+](=O)[O-])c2)cc1,AC50,INS1,0.97 µM (active)
COc1cccc(-c2nnc3sc(-c4ccccn4)nn23)c1,IC50,H9c2,> 79 µM (inactive)
O=C(CCc1nc(O)c2ccccc2n1)Nc1nc(-c2cccs2)cs1,IC50,H9c2,17.3 µM (active)
same,EC50,[6],12.5 µM (active)
same,EC50,[7],15.8 µM (active)
same,EC50,H4,104 µM (inconclusive)
Oc1nc2c(c3c1CCCC3)CCCC2,IC50,H9c2,> 79 µM (inactive)
CC1CN(c2ccc([N+](=O)[O-])cc2C#N)CC(C)O1 (configuration not stated),CC50,[8],34.9 µM (active)
O=C(COC(=O)c1cc(-c2cccnc2)nc2ccccc12)Nc1ccc(F)cc1F,IC50,H9c2,13.8 µM (active)
Cc1cccc(NC(=O)c2cc(-c3ccco3)nc3ccccc23)n1,IC50,H9c2,> 79 µM (inactive)
O=C(NC(=S)N1CCN(C(c2ccccc2)c2ccccc2)CC1)c1ccc(S(=O)(=O)N2CCOCC2)cc1,EC50,Streptokinase A,> 150 µM (not active)
same,EC50,[9],1.14 µM (active)
same,EC50,Streptococcus,108 µM (active)
CC(C)(C)c1ccc(Cn2ccc(-c3ccc4c(c3)OCO4)n2)cc1,EC50,Streptokinase A,> 150 µM (not active)
same,EC50,[9],9.62 µM (active)
same,EC50,Streptococcus,79.9 µM (active)
CC[C@@]12C(=O)N(c3cccc(Br)c3)C(=O)N1[C@H](c1ccc(F)cc1)[C@@H]1C(=O)N(C3CCCCC3)C(=O)[C@@H]12,CC50,[8],41.1 µM (active)
CC(C)(C)C(=O)N1N=C(c2ccc(NS(C)(=O)=O)cc2)CC1c1cccs1 (configuration not stated),EC50,Streptokinase A,> 150 µM (not active)
same,EC50,[9],6.62 µM (active)
same,EC50,Streptococcus,12.4 µM (active)
Cc1noc(/C=C/N(C)C)c1S(=O)(=O)N1CCC(C(=O)Nc2ccc(Cl)cc2)CC1,EC50,[4],> 53 µM (inactive)
same,IC50,[5],> 47.1 µM (inactive)
COc1ccc(-c2[nH]c(-c3ccc(C)cc3)nc2SCC(=O)NC2CCCC2)cc1,CC50,[8],38.9 µM (active)
Cc1cc(C)n(-c2nc(NCCO)c3c4c(sc3n2)CCCC4)n1,AC50,INS1,5.3 µM (active)
O=C(CSc1ccc(-c2ccc(Cl)cc2)nn1)NC1CCCC1,EC50,Streptokinase A,> 150 µM (not active)
same,EC50,[9],> 150 µM (not active)
same,EC50,Streptococcus,> 150 µM (not active)
COc1ccccc1NC(=O)CSc1ccc2nnc(-c3ccc(C)cc3)n2n1,IC50,H9c2,> 79 µM (inactive)
COc1cc(OC)c(NC(=O)c2sc3ncn(CC(=O)N4CCN(c5ccccn5)CC4)c(=O)c3c2C)cc1Cl,EC50,Streptokinase A,> 150 µM (not active)
same,EC50,[9],11.6 µM (active)
same,EC50,Streptococcus,86.6 µM (active)
